Source: ChEMBL document CHEMBL6109100, “Discovery of novel benzoxazole analogues as potential anticancer agent selectively targeting aromatase” (Bioorg Med Chem, 2025)

Legend:
[1] = system: MCF7; assay: Cytotoxicity against human MCF7 cells assessed as reduction in cell viability measured after 48 hrs by SRB assay; assay type: functional
[2] = biological target: T1, Aromatase (Rattus norvegicus, UniProt P22443); assay: Inhibition of rat aromatase measured after 2 hrs by ELISA
T1 sequence (P22443 whole entry): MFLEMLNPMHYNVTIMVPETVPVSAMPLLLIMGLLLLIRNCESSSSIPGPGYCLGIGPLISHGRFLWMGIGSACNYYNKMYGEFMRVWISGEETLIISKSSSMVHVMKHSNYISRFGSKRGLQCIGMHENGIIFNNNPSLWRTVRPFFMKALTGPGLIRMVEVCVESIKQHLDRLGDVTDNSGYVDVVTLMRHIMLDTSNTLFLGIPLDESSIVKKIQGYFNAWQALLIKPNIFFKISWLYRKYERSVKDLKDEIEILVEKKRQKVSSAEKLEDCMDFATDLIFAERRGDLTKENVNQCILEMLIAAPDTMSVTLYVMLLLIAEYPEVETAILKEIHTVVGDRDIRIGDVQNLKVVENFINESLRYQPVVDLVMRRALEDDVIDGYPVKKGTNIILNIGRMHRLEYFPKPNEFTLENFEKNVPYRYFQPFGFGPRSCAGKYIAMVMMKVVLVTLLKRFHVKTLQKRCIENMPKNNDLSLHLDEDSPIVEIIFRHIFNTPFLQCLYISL

[3] = system: MDA-MB-231; assay: Cytotoxicity against human MDA-MB-231 cells assessed as reduction in cell viability measured after 48 hrs by MTT assay; assay type: functional, cell-based; conditions: MDA-MB-231, 48 h
[4] = system: RPMI-8226; assay: Cytotoxicity against human RPMI-8226 cells assessed as reduction in cell viability measured after 48 hrs by SRB assay; assay type: functional, cell-based; conditions: RPMI-8226, 48 h
[5] = biological target: Poly [ADP-ribose] polymerase 2 (Homo sapiens, UniProt Q9UGN5); assay: Inhibition of PARP-2 (unknown origin)
[6] = system: MDA-MB-231; assay: Cytotoxicity against human MDA-MB-231 cells assessed as reduction in cell viability measured after 48 hrs by SRB assay; assay type: functional
[7] = biological target: Histone deacetylase; assay: Inhibition of HDAC (unknown origin); assay type: protein assay, Homo sapiens
[8] = biological target: T2, Aromatase (Homo sapiens, UniProt P11511); assay: Inhibition of aromatase in human MCF7 cells using androstenedione as substrate measured after 2 hrs; assay type: cell-based
T2 sequence (P11511 whole entry): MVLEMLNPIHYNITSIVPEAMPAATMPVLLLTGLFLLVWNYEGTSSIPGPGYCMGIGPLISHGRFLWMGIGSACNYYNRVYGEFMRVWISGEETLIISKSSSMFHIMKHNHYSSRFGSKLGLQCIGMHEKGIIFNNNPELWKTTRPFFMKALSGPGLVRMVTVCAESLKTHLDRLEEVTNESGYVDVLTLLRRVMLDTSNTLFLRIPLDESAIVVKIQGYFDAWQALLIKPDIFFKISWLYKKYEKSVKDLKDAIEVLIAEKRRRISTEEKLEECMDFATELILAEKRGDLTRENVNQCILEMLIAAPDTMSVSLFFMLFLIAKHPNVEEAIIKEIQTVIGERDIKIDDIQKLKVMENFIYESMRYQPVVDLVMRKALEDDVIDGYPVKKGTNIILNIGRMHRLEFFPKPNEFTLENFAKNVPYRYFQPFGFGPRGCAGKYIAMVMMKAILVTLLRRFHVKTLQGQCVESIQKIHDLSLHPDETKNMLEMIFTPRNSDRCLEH

[9] = system: BT-549; assay: Cytotoxicity against human BT-549 cells assessed as reduction in cell viability measured after 48 hrs by SRB assay; assay type: functional
[10] = biological target: Carbonic anhydrase 2 (Homo sapiens, UniProt P00918); assay: Inhibition of CA2 (unknown origin) using p-nitrophenyl acetate as substrate preincubated for 10 mins followed by substrate addition and measured after 30 mins by spectrophotometry
[11] = system: MDA-MB-468; assay: Cytotoxicity against human MDA-MB-468 cells assessed as reduction in cell viability measured after 48 hrs by SRB assay; assay type: functional
[12] = system: T47D; assay: Cytotoxicity against human T47D cells assessed as reduction in cell viability measured after 48 hrs by SRB assay; assay type: functional
[13] = Cytotoxicity against African green monkey Vero cells assessed as reduction in cell viability measured after 48 hrs by SRB assay; assay type: toxicity, cell-based; conditions: chlorocebus sabaeus

Sequence of Poly [ADP-ribose] polymerase 2 (Q9UGN5 whole entry): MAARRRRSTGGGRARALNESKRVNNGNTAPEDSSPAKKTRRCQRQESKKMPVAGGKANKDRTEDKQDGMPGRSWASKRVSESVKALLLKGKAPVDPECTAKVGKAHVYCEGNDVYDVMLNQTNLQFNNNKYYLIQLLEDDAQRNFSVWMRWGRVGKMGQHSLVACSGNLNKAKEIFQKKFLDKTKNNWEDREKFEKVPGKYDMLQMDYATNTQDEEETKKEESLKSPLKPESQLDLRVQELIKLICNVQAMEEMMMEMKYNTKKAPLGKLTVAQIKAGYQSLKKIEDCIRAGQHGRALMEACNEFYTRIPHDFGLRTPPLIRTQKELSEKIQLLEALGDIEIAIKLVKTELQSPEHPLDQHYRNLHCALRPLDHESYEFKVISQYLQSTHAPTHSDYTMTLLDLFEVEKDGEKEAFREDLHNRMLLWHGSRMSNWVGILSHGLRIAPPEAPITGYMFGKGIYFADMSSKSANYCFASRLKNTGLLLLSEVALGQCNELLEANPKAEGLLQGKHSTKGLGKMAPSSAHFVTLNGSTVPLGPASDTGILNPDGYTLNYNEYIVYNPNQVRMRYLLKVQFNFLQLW

Question: Which GI50 [1] does the source give for O=[N+]([O-])c1cccc(S(=O)(=O)N2CCN(Cc3nc4cc(F)ccc4o3)CC2)c1 here?
Answer: The GI50 was 3.25 µM.

Question: Which GI50 [1] does the source give for O=S(=O)(N1CCCCC1)N1CCN(Cc2nc3cc(F)ccc3o2)CC1 here?
Answer: The GI50 was 9.33 µM.

Question: For O=[N+]([O-])c1ccccc1S(=O)(=O)N1CCN(Cc2nc3cc(F)ccc3o2)CC1, which GI50 [1] is on record?
Answer: The GI50 was 5.95 µM.

Question: With O=S(=O)(c1ccc(F)cc1)N1CCN(Cc2nc3cc(F)ccc3o2)CC1 as the compound, how does the GI50 [1] read?
Answer: The GI50 was 6.52 µM.

Question: With N#Cc1ccc(C(c2ccc(C#N)cc2)n2cncn2)cc1 [LETROZOLE] as the compound, how does the IC50 [2] read?
Answer: The IC50 was 0.29 µM.

Question: And the IC50 [3]?
Answer: Its IC50 is 1.27 µM.

Question: For O=S(=O)(c1ccccc1)N1CCN(Cc2nc3cc(F)ccc3o2)CC1, which GI50 [1] is on record?
Answer: Its GI50 is 8.56 µM.

Question: For O=[N+]([O-])c1ccc(S(=O)(=O)N2CCN(Cc3nc4cc(F)ccc4o3)CC2)cc1, which GI50 [1] is on record?
Answer: Its GI50 is 1.02 µM.

Question: For COc1ccccc1S(=O)(=O)N1CCN(Cc2nc3cc(F)ccc3o2)CC1, which GI50 [1] is on record?
Answer: Its GI50 is 4.63 µM.

Question: For Cc1nc(Nc2nc3ccccc3o2)nc(-c2cccc([N+](=O)[O-])c2)c1C(=O)Nc1ccc(F)cc1Cl, which IC50 [4] is on record?
Answer: The IC50 was 0.72 µM.

Question: With CN(C)S(=O)(=O)N1CCN(Cc2nc3cc(F)ccc3o2)CC1 as the compound, how does the GI50 [1] read?
Answer: Its GI50 is 18.3 µM.

Question: Which GI50 [1] does the source give for O=S(=O)(c1cccc2ccccc12)N1CCN(Cc2nc3cc(F)ccc3o2)CC1 here?
Answer: Its GI50 is 12.5 µM.

Question: For CCS(=O)(=O)N1CCN(Cc2nc3cc(F)ccc3o2)CC1, which GI50 [1] is on record?
Answer: The GI50 was 14.4 µM.

Question: Which GI50 [1] does the source give for CC(C)S(=O)(=O)N1CCN(Cc2nc3cc(F)ccc3o2)CC1 here?
Answer: Its GI50 is 21.6 µM.

Question: Which GI50 [1] does the source give for O=S(=O)(N1CCOCC1)N1CCN(Cc2nc3cc(F)ccc3o2)CC1 here?
Answer: Its GI50 is 10.3 µM.

Question: Which results are given for CC(C)(C)c1ccc(S(=O)(=O)N2CCN(Cc3nc4cc(F)ccc4o3)CC2)cc1?
Answer: IC50 [5]: 0.739 µM; GI50 [6]: 0.49 µM; IC50 [7]: 1.125 µM; IC50 [8]: 0.0649 µM; GI50 [9]: 1.73 µM; IC50 [10]: 4.1 µM; GI50 [11]: 0.87 µM; GI50 [12]: 2.55 µM; GI50 at 48 h [13]: 67.1 µM; GI50 [1]: 0.22 µM

Question: For CS(=O)(=O)N1CCN(Cc2nc3cc(F)ccc3o2)CC1, which GI50 [1] is on record?
Answer: The GI50 was 29.8 µM.

Question: Which GI50 [1] does the source give for Cc1ccc(S(=O)(=O)N2CCN(Cc3nc4cc(F)ccc4o3)CC2)cc1 here?
Answer: Its GI50 is 1.73 µM.

Question: With COc1cccc2c1C(=O)c1c(O)c3c(c(O)c1C2=O)C[C@@](O)(C(=O)CO)C[C@@H]3O[C@H]1C[C@H](N)[C@H](O)[C@H](C)O1 [DOXORUBICIN] as the compound, how does the GI50 [6] read?
Answer: Its GI50 is 0.14 µM.

Question: And the GI50 [9]?
Answer: Its GI50 is 2.01 µM.

Question: And the GI50 [11]?
Answer: Its GI50 is 0.53 µM.

Question: What about the GI50 [12] of the same compound?
Answer: Its GI50 is 3.78 µM.

Question: What about the GI50 at 48 h [13] of the same compound?
Answer: The GI50 at 48 h was 143 µM.

Question: And the GI50 [1]?
Answer: Its GI50 is 0.89 µM.

Question: With O=S(=O)(C1CC1)N1CCN(Cc2nc3cc(F)ccc3o2)CC1 as the compound, how does the GI50 [1] read?
Answer: The GI50 was 25.1 µM.

Question: With CN1CCN(S(=O)(=O)N2CCN(Cc3nc4cc(F)ccc4o3)CC2)CC1 as the compound, how does the GI50 [1] read?
Answer: Its GI50 is 7.37 µM.

Question: For O=Cc1ccc(S(=O)(=O)N2CCN(Cc3nc4cc(F)ccc4o3)CC2)cc1, which GI50 [1] is on record?
Answer: The GI50 was 2.45 µM.

Question: Which IC50 [2] does the source give for CC(C)(C#N)c1cc(Cn2cncn2)cc(C(C)(C)C#N)c1 [ANASTROZOLE] here?
Answer: Its IC50 is 3.93 µM.

Question: What about the IC50 [3] of the same compound?
Answer: Its IC50 is 1.21 µM.
